From PubChem BioAssay (NCI)
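Growth conditions: 96-well plates. Treatment: test compound, 48 hours, 5 concentrations. Analysis: linear interpolation between bracketing concentrations; unreached endpoints set to highest concentration. The concentration for full growth arrest is given as TGI.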

Experiments:
Assay in all cases: NCI anticancer screen, dose series, 48 h
UO-31 renal = system: UO-31 renal
NCI/ADR-RES ovarian = system: NCI/ADR-RES ovarian
HS 578T breast = system: HS 578T breast
K-562 leukemia = system: K-562 leukemia
SNB-19 CNS = system: SNB-19 CNS
CCRF-CEM leukemia = system: CCRF-CEM leukemia
HL-60(TB) leukemia = system: HL-60(TB) leukemia
PC-3 prostate = system: PC-3 prostate
A498 renal = system: A498 renal
OVCAR-4 ovarian = system: OVCAR-4 ovarian

SMILES	TGI (UO-31 renal) [µM]	TGI (NCI/ADR-RES ovarian) [µM]	TGI (HS 578T breast) [µM]	TGI (K-562 leukemia) [µM]	TGI (SNB-19 CNS) [µM]	TGI (CCRF-CEM leukemia) [µM]	TGI (HL-60(TB) leukemia) [µM]	TGI (PC-3 prostate) [µM]	TGI (A498 renal) [µM]	TGI (OVCAR-4 ovarian) [µM]
Cc1nnc(N)nc1C/C=C/C(C)Sc1ccc(Cl)cc1 (centres undefined)	19.4	> 60.3	> 75.9	> 100	> 51	26.4	10.1	17.8	25.9	48
Cc1c2c(n3c(nc4ccccc43)c1C#N)NCC2	> 10	> 10	> 10	> 10	> 10	> 10	> 10	> 10	> 10	> 10
CC(=O)OC1CC2C(=O)CC1(C)C2(C)C (centres undefined)	> 100	> 100	> 100	> 100	> 100	> 100	> 100	> 100	> 100	> 100
Cc1ccc(/C=C2\CCS(=O)(=O)c3ccccc3C2=O)cc1	25.4	28.2	> 100	> 100	36.5	62.3	73.1	45.3	36.5	34.8
CC(Cn1c(=O)oc2ccccc21)N(C)C (centres undefined)	–	> 100	> 100	> 100	> 100	> 100	> 100	> 100	> 100	–
C[C@@]12C[C@@H](c3ccccc3O1)N1CCCSC1=N2	> 100	> 100	> 100	> 100	> 100	> 100	> 100	> 100	> 100	> 100
COc1c(-c2ccc(F)cc2)oc2c(CC(=O)O)cccc2c1=O	96.6	> 100	> 100	> 100	–	> 100	> 100	> 100	> 100	–
COC(=O)CCc1cc(OC)c2oc(-c3ccc(OC)c(OC)c3)c(CO)c2c1	> 100	> 100	> 100	> 100	> 100	> 100	> 100	> 100	> 100	> 100
O=C(Nc1ccccc1)c1cc2cc(CCl)ccc2oc1=O	> 100	> 100	63.9	> 100	> 100	> 100	> 100	> 100	26.1	> 100
Clc1ccc2c(c1)CC1C[N+]3=C(CCCCC3)C1=C2 (centres undefined)	> 100	> 100	> 100	> 100	> 100	> 100	> 100	> 100	> 100	> 100
O=C(N/N=C\c1ccc(Cl)cc1)Nc1cccc2ccccc12	4.84	> 100	12	> 100	5.64	> 31.9	27.1	> 100	7.13	6.84
C[N+]1(C)C/C(=C\C=C\c2ccccc2)C(=O)/C(=C/C=C/c2ccccc2)C1	> 100	> 100	> 61.4	36	27.5	13.7	4.13	98.7	> 94.9	> 84.2
CCOC(=O)NC(C(F)(F)F)(C(F)(F)F)P(=O)(OCC)OCC	85.5	> 100	> 100	> 100	> 100	> 100	> 100	> 100	> 100	> 100
COc1cc(C2SCC(=O)N2c2ccc(Cl)cc2)cc(OC)c1OC (centres undefined)	> 100	> 100	> 100	> 52.9	> 100	30.6	29.2	> 100	> 100	> 100
CC(=O)O[C@H]1C(=O)[C@@]2(C)[C@H]([C@H](OC(=O)c3ccccc3)[C@]3(O)C[C@H](OC(=O)[C@H](O)[C@@H](NC(=O)OC(C)(C)C)c4ccco4)C(C)=C1C3(C)C)[C@]1(OC(C)=O)CO[C@@H]1C[C@@H]2O	> 34.9	0.643	< 0.005	13.4	> 50	35.7	0.0241	> 50	22.7	> 50
O=C(/C=C/c1ccc(O)c(O)c1)c1ccc(O)cc1O	30.3	> 84.1	78.8	25.4	43.9	> 71.7	22.3	52.6	34.7	37.8
COc1cc2c(cc1OC)-c1cc3cc(OC)c(OC)cc3c(C)[n+]1CC2 (tested in a mixture with another compound)	> 100	> 100	> 100	–	> 100	77	> 100	> 100	> 100	> 100
CC(=O)c1ccc(Nc2nc3ccccc3c3occc23)cc1	96.4	58	54.1	–	> 100	67.3	2.4	> 100	12.3	8.78
